# From PubChem BioAssay (NCI)
#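 Growth conditions: 96-well plates. Treatment: test compound, 48 hours, 5 concentrations. Analysis: linear interpolation between bracketing concentrations; unreached endpoints set to highest concentration. TGI marks complete inhibition of growth.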
# Columns and labels:
# Test in all cases: NCI tumour cell line growth inhibition, 48 h
# IGROV1 ovarian = system: IGROV1 ovarian
# HS 578T breast = system: HS 578T breast
# HL-60(TB) leukemia = system: HL-60(TB) leukemia
# ACHN renal = system: ACHN renal
# NCI-H23 lung = system: NCI-H23 lung
# A498 renal = system: A498 renal
# LOX IMVI melanoma = system: LOX IMVI melanoma
# SK-OV-3 ovarian = system: SK-OV-3 ovarian
# MCF7 breast = system: MCF7 breast
# MDA-MB-435 = system: MDA-MB-435
# CAKI-1 renal = system: CAKI-1 renal
# UACC-257 melanoma = system: UACC-257 melanoma
# HCC-2998 colon = system: HCC-2998 colon
# NCI-H226 lung = system: NCI-H226 lung
# OVCAR-3 ovarian = system: OVCAR-3 ovarian
# NCI-H460 lung = system: NCI-H460 lung
# HCT-15 colon = system: HCT-15 colon
# CCRF-CEM leukemia = system: CCRF-CEM leukemia
# A549 NSCLC = system: A549 NSCLC
# NCI-H522 lung = system: NCI-H522 lung
# SNB-19 CNS = system: SNB-19 CNS
# HT29 colon = system: HT29 colon
# SK-MEL-2 melanoma = system: SK-MEL-2 melanoma
# K-562 leukemia = system: K-562 leukemia
# HCT-116 colon = system: HCT-116 colon
# SK-MEL-28 melanoma = system: SK-MEL-28 melanoma
# SF-268 CNS = system: SF-268 CNS
# KM12 colon = system: KM12 colon
# SN12C renal = system: SN12C renal
# OVCAR-5 ovarian = system: OVCAR-5 ovarian
# RXF 393 renal = system: RXF 393 renal
# NCI/ADR-RES ovarian = system: NCI/ADR-RES ovarian
# PC-3 prostate = system: PC-3 prostate
# UO-31 renal = system: UO-31 renal
# HOP-62 NSCLC = system: HOP-62 NSCLC
# MALME-3M melanoma = system: MALME-3M melanoma
# U251 CNS = system: U251 CNS
# 786-0 renal = system: 786-0 renal
# OVCAR-4 ovarian = system: OVCAR-4 ovarian
# MOLT-4 leukemia = system: MOLT-4 leukemia
# RPMI-8226 leukemia = system: RPMI-8226 leukemia
# EKVX NSCLC = system: EKVX NSCLC
# SK-MEL-5 melanoma = system: SK-MEL-5 melanoma
# COLO 205 colon = system: COLO 205 colon
# SW-620 colon = system: SW-620 colon
# DU-145 prostate = system: DU-145 prostate
# SF-539 CNS = system: SF-539 CNS
# MDA-N = system: MDA-N
# M14 melanoma = system: M14 melanoma
# MDA-MB-231 breast = system: MDA-MB-231 breast
# T-47D breast = system: T-47D breast
# TK-10 renal = system: TK-10 renal
# UACC-62 melanoma = system: UACC-62 melanoma
# OVCAR-8 ovarian = system: OVCAR-8 ovarian
# SF-295 CNS = system: SF-295 CNS
# BT-549 breast = system: BT-549 breast
# SR leukemia = system: SR leukemia
# HOP-92 NSCLC = system: HOP-92 NSCLC
# SNB-75 CNS = system: SNB-75 CNS
smiles,measurement,setting,value
CC1(Cc2cc3c(cc2C2(c4ccc([N+](=O)[O-])cc4)OCCO2)OCO3)OCCO1,TGI,IGROV1 ovarian,> 100 µM
same,TGI,HS 578T breast,> 100 µM
same,TGI,HL-60(TB) leukemia,> 100 µM
same,TGI,ACHN renal,> 100 µM
same,TGI,NCI-H23 lung,> 100 µM
same,TGI,A498 renal,> 100 µM
same,TGI,LOX IMVI melanoma,> 100 µM
same,TGI,SK-OV-3 ovarian,> 100 µM
same,TGI,MCF7 breast,> 100 µM
same,TGI,MDA-MB-435,> 100 µM
same,TGI,CAKI-1 renal,> 100 µM
same,TGI,UACC-257 melanoma,> 100 µM
same,TGI,HCC-2998 colon,> 100 µM
same,TGI,NCI-H226 lung,> 100 µM
same,TGI,OVCAR-3 ovarian,> 100 µM
same,TGI,NCI-H460 lung,> 100 µM
same,TGI,HCT-15 colon,> 100 µM
same,TGI,CCRF-CEM leukemia,> 100 µM
same,TGI,A549 NSCLC,> 100 µM
same,TGI,NCI-H522 lung,82.3 µM
same,TGI,SNB-19 CNS,> 100 µM
same,TGI,HT29 colon,> 100 µM
same,TGI,SK-MEL-2 melanoma,> 100 µM
same,TGI,K-562 leukemia,> 100 µM
same,TGI,HCT-116 colon,> 100 µM
same,TGI,SK-MEL-28 melanoma,> 100 µM
same,TGI,SF-268 CNS,> 100 µM
same,TGI,KM12 colon,> 100 µM
same,TGI,SN12C renal,> 100 µM
same,TGI,OVCAR-5 ovarian,> 100 µM
same,TGI,RXF 393 renal,> 100 µM
same,TGI,NCI/ADR-RES ovarian,> 100 µM
same,TGI,PC-3 prostate,> 100 µM
same,TGI,UO-31 renal,> 100 µM
same,TGI,HOP-62 NSCLC,> 100 µM
same,TGI,MALME-3M melanoma,> 100 µM
same,TGI,U251 CNS,> 100 µM
same,TGI,786-0 renal,> 100 µM
same,TGI,OVCAR-4 ovarian,> 100 µM
same,TGI,MOLT-4 leukemia,> 100 µM
same,TGI,RPMI-8226 leukemia,78.4 µM
same,TGI,EKVX NSCLC,> 100 µM
same,TGI,SK-MEL-5 melanoma,> 100 µM
same,TGI,COLO 205 colon,> 100 µM
same,TGI,SW-620 colon,> 100 µM
same,TGI,DU-145 prostate,> 100 µM
same,TGI,SF-539 CNS,> 100 µM
same,TGI,MDA-N,> 100 µM
same,TGI,M14 melanoma,> 100 µM
same,TGI,MDA-MB-231 breast,> 100 µM
same,TGI,T-47D breast,> 100 µM
same,TGI,TK-10 renal,> 100 µM
same,TGI,UACC-62 melanoma,> 100 µM
same,TGI,OVCAR-8 ovarian,> 100 µM
same,TGI,SF-295 CNS,> 100 µM
same,TGI,BT-549 breast,98.9 µM
O=C1C(CO)=C[C@@H](O)[C@H]2O[C@@H]12,TGI,IGROV1 ovarian,> 100 µM
same,TGI,HS 578T breast,> 100 µM
same,TGI,HL-60(TB) leukemia,> 100 µM
same,TGI,ACHN renal,> 100 µM
same,TGI,NCI-H23 lung,> 100 µM
same,TGI,A498 renal,> 100 µM
same,TGI,LOX IMVI melanoma,65.4 µM
same,TGI,SK-OV-3 ovarian,> 100 µM
same,TGI,MCF7 breast,44.9 µM
same,TGI,MDA-MB-435,78.6 µM
same,TGI,CAKI-1 renal,> 100 µM
same,TGI,NCI-H226 lung,> 100 µM
same,TGI,OVCAR-3 ovarian,> 100 µM
same,TGI,NCI-H460 lung,> 100 µM
same,TGI,HCT-15 colon,> 100 µM
same,TGI,CCRF-CEM leukemia,> 100 µM
same,TGI,A549 NSCLC,> 100 µM
same,TGI,NCI-H522 lung,> 100 µM
same,TGI,SR leukemia,> 100 µM
same,TGI,HT29 colon,> 100 µM
same,TGI,SK-MEL-2 melanoma,> 100 µM
same,TGI,K-562 leukemia,> 100 µM
same,TGI,HCT-116 colon,> 100 µM
same,TGI,SK-MEL-28 melanoma,> 100 µM
same,TGI,SF-268 CNS,> 100 µM
same,TGI,KM12 colon,> 100 µM
same,TGI,SN12C renal,36.3 µM
same,TGI,OVCAR-5 ovarian,> 100 µM
same,TGI,NCI/ADR-RES ovarian,> 100 µM
same,TGI,HOP-92 NSCLC,> 100 µM
same,TGI,UO-31 renal,> 100 µM
same,TGI,HOP-62 NSCLC,> 100 µM
same,TGI,MALME-3M melanoma,> 100 µM
same,TGI,U251 CNS,> 100 µM
same,TGI,786-0 renal,> 100 µM
same,TGI,OVCAR-4 ovarian,53.4 µM
same,TGI,MOLT-4 leukemia,> 100 µM
same,TGI,RPMI-8226 leukemia,> 100 µM
same,TGI,EKVX NSCLC,> 100 µM
same,TGI,SK-MEL-5 melanoma,> 100 µM
same,TGI,COLO 205 colon,> 100 µM
same,TGI,SW-620 colon,> 100 µM
same,TGI,DU-145 prostate,> 100 µM
same,TGI,MDA-N,> 100 µM
same,TGI,M14 melanoma,> 100 µM
same,TGI,MDA-MB-231 breast,> 100 µM
same,TGI,T-47D breast,> 100 µM
same,TGI,UACC-62 melanoma,> 100 µM
same,TGI,OVCAR-8 ovarian,> 100 µM
same,TGI,SF-295 CNS,> 100 µM
same,TGI,BT-549 breast,> 100 µM
same,TGI,SNB-75 CNS,> 100 µM
